For orientation: IC50 means the point on the concentration scale where inhibition reaches its midpoint.

Assay [1] addresses T1, hCGRP receptor (CALCRL:RAMP1) (Homo sapiens, UniProt O60894+Q16602).
T1 construct: host or cells: GeneBLAzer CALCRL:RAMP1-CRE-bla Freestyle 293F
The experiment in a line: CGRP receptor antagonist activity measured by cAMP assay (HTRF). Format: cell-based. Conditions: agonist human α-CGRP; for Emax: % MPE: percent of the maximal possible effect, read-out: hCGRP-R Efficacy Antag (%) Ave; for IC50: GeneBLAzer CALCRL:RAMP1-CRE-bla Freestyle 293F cells, 30 minutes, read-out: hCGRP-R IC50 Ave.

The target in assay [2] is T2, hAM2 receptor (CALCRL:RAMP3) (Homo sapiens, UniProt O60896+Q16602).
T2 construct: expressed in transfected cells; host or cells: GeneBLAzer CALCRL:RAMP3-CRE-bla Freestyle 293F
T2 sequence (Q16602 23-461): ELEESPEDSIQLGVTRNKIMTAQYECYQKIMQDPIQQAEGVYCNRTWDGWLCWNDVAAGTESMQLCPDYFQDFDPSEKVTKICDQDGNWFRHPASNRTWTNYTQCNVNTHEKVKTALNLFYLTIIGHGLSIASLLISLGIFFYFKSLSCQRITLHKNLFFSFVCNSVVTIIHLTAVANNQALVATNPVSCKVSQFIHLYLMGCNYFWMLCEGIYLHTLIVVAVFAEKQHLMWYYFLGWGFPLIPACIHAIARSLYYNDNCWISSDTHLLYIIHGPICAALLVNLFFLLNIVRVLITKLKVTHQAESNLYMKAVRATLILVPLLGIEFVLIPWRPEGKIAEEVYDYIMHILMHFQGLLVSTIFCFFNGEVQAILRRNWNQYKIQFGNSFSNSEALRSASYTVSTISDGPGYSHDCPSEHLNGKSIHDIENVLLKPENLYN
T2 sequence (O60896 24-148): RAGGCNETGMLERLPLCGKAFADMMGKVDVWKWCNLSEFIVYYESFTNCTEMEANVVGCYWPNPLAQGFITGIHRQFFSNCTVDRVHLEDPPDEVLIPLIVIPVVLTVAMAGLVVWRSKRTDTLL
The experiment in a line: AM2 receptor antagonist activity measured by cAMP assay (HTRF). Format: cell-based. Particulars: for Emax: % MPE: percent of the maximal possible effect, read-out: hAM2-R Efficacy Antag (%) Ave; for Emax / IC50: agonist human adrenomedullin; for IC50: GeneBLAzer CALCRL:RAMP3-CRE-bla Freestyle 293F cells, read-out: hAM2-R IC50 Ave; for selectivity ratio CGRP/AM2: selectivity ratio for hCGRP over hAM2, calculated from the IC50 values.

Numbered stars: 1 amine (or outer) side, 2 acyl side, 3 side chain; on linkers, the order of the positions; unused ones are H or OH. Bridge positions count the residues as written; N and C are the ends. Square brackets hold non-standard residues; d marks the D form. Peptide text beside a SMILES is read from it. * marks the point of attachment. Phe(3-CH2NH2) = O=C([C@H](Cc1cccc(CN[*:3])c1)N[*:1])[*:2]; Phe(2-CONH2) = NC(=O)c1ccccc1C[C@H](N)C(=O)O; Triazol3yl(1,2,4-5-NH2) = Nc1nc(*)n[nH]1; X3 = NCc1ccccc1C[C@H](N[*:1])C(=O)[*:2]; Imidazole4carbonyl = O=C(c1cnc[nH]1)*; Orn(iPr) = CC(C)NCCC[C@H](N)C(=O)O; Orn(Me2) = CN(C)CCC[C@H](N)C(=O)O; Oxazole2carbonyl = O=C(c1ncco1)*; 3Pal = N[C@@H](Cc1cccnc1)C(=O)O; X4 = O=C(c1ncccc1[N+](=O)[O-])*; Pyrrole2CO = O=C(c1ccc[nH]1)*; Picolinoyl = O=C(c1ccccn1)*; ΔPro = O=C(O)[C@@H]1C=CCN1; Orn = NCCC[C@H](N)C(=O)O; X2 = Cc1n[nH]c(C(=O)*)n1; X11 = O=C(c1ncccc1Cl)*; X1 = O=C(c1ncccc1F)*

T1 sequence (Q16602 23-461): as the sequence (Q16602 23-461) above
T1 sequence (O60894 27-148): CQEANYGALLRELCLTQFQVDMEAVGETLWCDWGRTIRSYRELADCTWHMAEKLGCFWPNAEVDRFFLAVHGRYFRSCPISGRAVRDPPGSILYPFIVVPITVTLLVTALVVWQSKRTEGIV

As to `CC(C)[C@@H]1NC(=O)[C@H](CC(=O)O)NC(=O)[C@H](CCCN(C)C)NC(=O)[C@@H](NC(=O)[C@H](Cc2ccc(O)cc2)NC(=O)[C@H](NC(=O)c2ncccc2F)C(C)C)CSSC[C@@H](C(=O)N[C@@H](Cc2cccnc2)C(N)=O)NC(=O)[C@H](Cc2ccccc2)NC(=O)[C@@H]2CCCN2C(=O)CNC1=O` [Compound 46, Picolinoyl(3-F)-D-Val-Tyr-c(Cys-Orn(Me2)-Asp-Val-Gly-Pro-Phe-Cys)-3Pal-NH2] (X1-[dV]YC[Orn(Me2)]DVGPFC[3Pal]-NH2; disulfide 3-10), in assay [1], the Emax was 100% and the half-inhibitory concentration (IC50) is 0.15 nM. Moreover, in assay [2], the Emax is 99%, the half-maximal inhibitory concentration (IC50) was 184 nM and the “selectivity ratio CGRP/AM2” value is 1189.
On to `CC(C)[C@@H]1NC(=O)[C@H](CC(=O)O)NC(=O)[C@H](CCCNC(=N)N)NC(=O)[C@@H](NC(=O)[C@H](Cc2ccc(O)cc2)NC(=O)[C@H](NC(=O)c2c[nH]cn2)C(C)C)CSSC[C@@H](C(=O)N[C@@H](Cc2cccnc2)C(N)=O)NC(=O)[C@H](Cc2ccccc2)NC(=O)[C@@H]2CCCN2C(=O)CNC1=O` [Compound 47] (Imidazole4carbonyl-[dV]YCRDVGPFC[3Pal]-NH2; disulfide 3-10), for which the Emax in assay [1] is 100%. In addition, in assay [2], the Emax is 99% and the “selectivity ratio CGRP/AM2” value is listed as 1460.
For `CC(C)[C@@H]1NC(=O)[C@H](CC(=O)O)NC(=O)[C@H](CCCNC(=N)N)NC(=O)[C@@H](NC(=O)[C@H](Cc2ccc(O)cc2)NC(=O)[C@H](NC(=O)c2cnc[nH]2)C(C)C)CSSC[C@@H](C(=O)N[C@@H](Cc2cccnc2)C(N)=O)NC(=O)[C@H](Cc2ccccc2)NC(=O)[C@@H]2CCCN2C(=O)CNC1=O` [Compound 47] (Imidazole4carbonyl-[dV]YCRDVGPFC[3Pal]-NH2; disulfide 3-10), the IC50 in assay [1] is 0.16 nM; in assay [2], 232 nM.
With `Cc1n[nH]c(C(=O)N[C@@H](C(=O)N[C@@H](Cc2ccc(O)cc2)C(=O)N[C@H]2CSSC[C@@H](C(=O)N[C@@H](Cc3cccnc3)C(N)=O)NC(=O)[C@H](Cc3ccccc3)NC(=O)[C@@H]3CCCN3C(=O)CNC(=O)[C@H](C(C)C)NC(=O)[C@H](CC(=O)O)NC(=O)[C@H](CCCNC(=N)N)NC2=O)C(C)C)n1` [Compound 48] (X2-[dV]YCRDVGPFC[3Pal]-NH2; disulfide 3-10), in assay [1], the Emax is 100% and the IC50 was 0.07 nM. In assay [2], the Emax is 96%, the 50% inhibitory concentration (IC50) is 402 nM and the “selectivity ratio CGRP/AM2” value is given as 5610.
For `CC(C)[C@@H]1NC(=O)[C@H](CC(=O)O)NC(=O)[C@H](CCCNC(=N)N)NC(=O)[C@@H](NC(=O)[C@H](Cc2ccc(O)cc2)NC(=O)[C@H](NC(=O)c2ccc[nH]2)C(C)C)CSSC[C@@H](C(=O)N[C@@H](Cc2cccnc2)C(N)=O)NC(=O)[C@H](Cc2ccccc2)NC(=O)[C@@H]2CCCN2C(=O)CNC1=O` [Compound 49] (Pyrrole2CO-[dV]YCRDVGPFC[3Pal]-NH2; disulfide 3-10), in assay [1], the Emax was 100% and the IC50 was 0.19 nM. Moreover, in assay [2], the Emax was 99%, the IC50 is 89 nM and the “selectivity ratio CGRP/AM2” value is given as 461.
On to `CC(C)[C@@H]1NC(=O)[C@H](CC(=O)O)NC(=O)[C@H](CCCNC(=N)N)NC(=O)[C@@H](NC(=O)[C@H](Cc2ccc(O)cc2)NC(=O)[C@H](NC(=O)c2ncccc2[N+](=O)[O-])C(C)C)CSSC[C@@H](C(=O)N[C@@H](Cc2cccnc2)C(N)=O)NC(=O)[C@H](Cc2ccccc2)NC(=O)[C@@H]2CCCN2C(=O)CNC1=O` [Compound 50] (X4-[dV]YCRDVGPFC[3Pal]-NH2; disulfide 3-10), for which, in assay [1], the Emax was 100% and the IC50 is 0.18 nM. In addition, in assay [2], the Emax was 99%, the IC50 was 8.1 nM and the “selectivity ratio CGRP/AM2” value was 46.
For `CC(C)[C@@H]1NC(=O)[C@H](CC(=O)O)NC(=O)[C@H](CCCNC(=N)N)NC(=O)[C@@H](NC(=O)[C@H](Cc2ccc(O)cc2)NC(=O)[C@H](NC(=O)c2ncccc2Cl)C(C)C)CSSC[C@@H](C(=O)N[C@@H](Cc2cccnc2)C(N)=O)NC(=O)[C@H](Cc2ccccc2)NC(=O)[C@@H]2CCCN2C(=O)CNC1=O` [Compound 51] (X11-[dV]YCRDVGPFC[3Pal]-NH2; disulfide 3-10), in assay [1], the Emax was 100% and the IC50 was 0.14 nM. Moreover, in assay [2], the Emax is 100%, the 50% inhibitory concentration (IC50) was 13 nM and the “selectivity ratio CGRP/AM2” value was 92.
As to `CC(C)[C@@H]1NC(=O)[C@H](CC(=O)O)NC(=O)[C@H](CCCNc2nc(N)n[nH]2)NC(=O)[C@@H](NC(=O)[C@H](Cc2ccccc2C(N)=O)NC(=O)[C@H](NC(=O)c2ncco2)C(C)C)CSSC[C@@H](C(=O)N[C@@H](Cc2cccnc2)C(N)=O)NC(=O)[C@H](Cc2cccnc2)NC(=O)[C@@H]2CCCN2C(=O)CNC1=O` [Compound 52, Oxazole-2-carbonyl-D-Val-Phe(2-Cbm)-c(Cys-Orn(Atz)-Asp-Val-Gly-Pro-3Pal-Cys)-3Pal-NH2] (Oxazole2carbonyl-[dV][Phe(2-CONH2)]C[Orn](Triazol3yl(1,2,4-5-NH2))DVGP[3Pal]C[3Pal]-NH2; disulfide 3-10), the Emax in assay [1] was 100%; in assay [2], 97%.
For `Cc1n[nH]c(C(=O)N[C@@H](C(=O)N[C@@H](Cc2ccc(O)cc2)C(=O)N[C@H]2CSSC[C@@H](C(=O)N[C@@H](Cc3cccnc3)C(N)=O)NC(=O)[C@H](Cc3ccccc3CN)NC(=O)[C@@H]3CCCN3C(=O)CNC(=O)[C@H](C(C)C)NC(=O)[C@H](CC(=O)O)NC(=O)[C@H](CCCNC(=N)N)NC2=O)C(C)C)n1` [Compound 53, 1H-1,2,4-triazole-5-carbonyl(3-Me)-D-Val-Tyr-c(Cys-Arg-Asp-Val-Gly-Pro-Phe(2-CH2NH2)-Cys)-3Pal-NH2] (X2-[dV]YCRDVGP[X3]C[3Pal]-NH2; disulfide 3-10), in assay [1], the Emax was 100% and the IC50 was 0.11 nM. Also, in assay [2], the Emax was 98%, the IC50 was 901 nM and the “selectivity ratio CGRP/AM2” value is on record as 8130.
On the same counts, the results for `CC(C)NCCC[C@@H]1NC(=O)[C@@H](NC(=O)[C@H](Cc2ccccc2C(N)=O)NC(=O)[C@H](NC(=O)c2ccccn2)C(C)C)CSSC[C@@H](C(=O)N[C@@H](Cc2cccnc2)C(N)=O)NC(=O)[C@H](Cc2cccc(CN)c2)NC(=O)[C@@H]2C=CCN2C(=O)CNC(=O)[C@H](C(C)C)NC(=O)[C@H](CC(=O)O)NC1=O` [Compound 54, Picolinoyl-D-Val-Phe(2-Cbm)-c(Cys-Orn(iPr)-Asp-Val-Gly-Dhp-Phe(3-CH2NH2)-Cys)-3Pal-NH2] (Picolinoyl-[dV][Phe(2-CONH2)]C[Orn(iPr)]DVG[ΔPro][Phe(3-CH2NH2)]C[3Pal]-NH2; disulfide 3-10) are 100%, 0.17 nM, 99%, 150 nM and 898.

Source of the values: patent publication US9969775B2, “CGRP antagonist peptides” (Ferring B.V., priority 2015, dated 2018).
